Test results taken from patent US10494360B2, “Inhibitors of indoleamine 2,3-dioxygenase” (NETHERLANDS TRANSLATIONAL RESEARCH CENTER B.V., priority 2016, dated 2019).
Several values for one entry are separate records, joined by “and”; a condition that tells them apart may be missing. Equal values may be shown once.

Target: IDO1 (Homo sapiens, UniProt P14902)
Assay: Biochemical IDO1 assay (NFK GreenScreen)
Parameters: Recombinant full-length IDO1 (Seegers, N., et al.) and all other assay components were diluted in IDO1 reaction buffer; made in house
Conditions: less active / most active isomer of the pair; assay not given
Protocol: Inhibition of IDO1 activity can be measured by determining the enzymatic conversion of L-tryptophan into N-formylkynurenine (NFK) in a reaction mixture containing IDO1 and test compound. The formation of NFK can be detected directly by, for instance, high-performance liquid chromatography (HPLC) methods, or by intrinsic fluorescence.
Compounds were serially diluted in dimethylsulfoxide (DMSO) and finally in IDO1 reaction buffer, consisting of 50 mM NaH2PO4, pH7.0, supplemented with 0.05% Tween-20 (cat. No. P7949; Sigma Aldrich) and 1% glycerol. Recombinant full-length IDO1 (Seegers, N., et al.) and all other assay components were diluted in IDO1 reaction buffer. […] Subsequently, 10 μl of 0.4 mM of the substrate L-tryptophan was added, i.e., the final concentration of L-tryptophan was 100 μM. The DMSO concentration in the assay was 0.3%. […] Incubation was continued for 60 min at room temperature. Then, 10 μl of NFK Green™ (NTRC, Oss, The Netherlands) was added, the plate was sealed, and the reaction was developed for 3 hours at 37° C. To determine the production of N-formyl kynurenine (NFK), the seal was removed and fluorescence was read on an EnVision multimode reader (Perkin Elmer, Waltham, Mass., USA). IC50 were calculated using XLfit™ software (ID Business Solutions, Ltd., Surrey, U.K.).

Chain of IDO1 (P14902 whole entry, species assumed): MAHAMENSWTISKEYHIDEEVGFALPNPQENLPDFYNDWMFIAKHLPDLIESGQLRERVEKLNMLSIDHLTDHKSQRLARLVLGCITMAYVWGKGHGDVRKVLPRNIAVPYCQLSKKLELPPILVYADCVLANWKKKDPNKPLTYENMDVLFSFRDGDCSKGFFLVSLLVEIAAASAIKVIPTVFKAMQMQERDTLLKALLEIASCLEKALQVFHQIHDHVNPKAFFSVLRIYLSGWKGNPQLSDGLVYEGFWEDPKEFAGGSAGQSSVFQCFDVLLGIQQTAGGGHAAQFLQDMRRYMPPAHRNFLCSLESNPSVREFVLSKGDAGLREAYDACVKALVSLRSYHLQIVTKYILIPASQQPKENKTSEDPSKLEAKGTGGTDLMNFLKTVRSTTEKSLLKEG

Row | relative activity of separated isomers | Structure (SMILES)
1 | less active isomer | CC(c1c(F)cccc1F)N1CC(=O)N(O)C1c1cccc(Br)c1 (centres unmarked) [Example 141a, 2-(3-Bromophenyl)-1-[1-(2,6-difluorophenyl)ethyl]-3-hydroxy-imidazolidin-4-one]

Same assay, conditions: recombinant full-length IDO1 25 nM, L-tryptophan 100 μM, NFK Green detection; read-out: IC50, inhibitory potency on IDO1

Row | Structure (SMILES) | IC50
2 | O=C1CN(C(=O)c2c(F)cccc2F)C(c2ccnc(Br)c2)N1O (centres unmarked) [Example 65, 2-(2-Bromo-4-pyridyl)-1-(2,6-difluorobenzoyl)-3-hydroxy-imidazolidin-4-one] | ≤ 5 µM and 1 to 5 µM
3 | O=C1CN(C(=O)c2c(F)cccc2F)C(c2cccc(Br)c2F)N1O (centres unmarked) [Example 70, 2-(3-Bromo-2-fluoro-phenyl)-1-(2,6-difluorobenzoyl)-3-hydroxy-imidazolidin-4-one] | ≤ 5 µM and 1 to 5 µM
4 | O=C1CN(C(=O)c2ccc(Cc3ccccc3)cc2)C(c2cccc(Br)c2)N1O (centres unmarked) [Example 74, 1-(4-Benzylbenzoyl)-2-(3-bromophenyl)-3-hydroxy-imidazolidin-4-one] | ≤ 5 µM and 1 to 5 µM
5 | O=C1CN(C(=O)c2c(F)ccc([N+](=O)[O-])c2F)C(c2cccc(Br)c2)N1O (centres unmarked) [Example 75, 2-(3-Bromophenyl)-1-(2,6-difluoro-3-nitro-benzoyl)-3-hydroxy-imidazolidin-4-one] | ≤ 1 µM
6 | CC(=O)Nc1ccc(F)c(C(=O)N2CC(=O)N(O)C2c2cccc(Br)c2)c1F (centres unmarked) [Example 77, N-[3-[2-(3-bromophenyl)-3-hydroxy-4-oxo-imidazolidine-1-carbonyl]-2,4-difluoro-phenyl]acetamide] | ≤ 1 µM
7 | Cc1cccc(F)c1C(=O)N1CC(=O)N(O)C1c1cccc(Br)c1 (centres unmarked) [Example 88, 2-(3-Bromophenyl)-1-(2-fluoro-6-methyl-benzoyl)-3-hydroxy-imidazolidin-4-one] | ≤ 5 µM and 1 to 5 µM
8 | O=C1CN(C(=O)c2cccs2)C(c2cccc(Br)c2)N1O (centres unmarked) [Example 90, 2-(3-Bromophenyl)-3-hydroxy-1-(thiophene-2-carbonyl)imidazolidin-4-one] | ≤ 5 µM and 1 to 5 µM
9 | O=C1CN(C(=O)c2ccc(Oc3ccccc3)cc2)C(c2cccc(Br)c2)N1O (centres unmarked) [Example 91, 2-(3-Bromophenyl)-3-hydroxy-1-(4-phenoxybenzoyl)imidazolidin-4-one] | ≤ 5 µM and 1 to 5 µM
10 | NS(=O)(=O)N1CCC(C(=O)N2CC(=O)N(O)C2c2cccc(Br)c2)CC1 (centres unmarked) [Example 101, 4-[2-(3-Bromophenyl)-3-hydroxy-4-oxo-imidazolidine-1-carbonyl]piperidine-1-sulfonamide] | ≤ 5 µM and 1 to 5 µM
11 | NCC#Cc1cc(F)c(C(=O)N2CC(=O)N(O)C2c2cccc(Br)c2)c(F)c1 (centres unmarked) [Example 109, 1-[4-(3-Aminoprop-1-ynyl)-2,6-difluoro-benzoyl]-2-(3-bromophenyl)-3-hydroxy-imidazolidin-4-one] | ≤ 1 µM
12 | CS(=O)(=O)NCC#Cc1cc(F)c(C(=O)N2CC(=O)N(O)C2c2cccc(Br)c2)c(F)c1 (centres unmarked) [Example 110, N-[3-[4-[2-(3-bromophenyl)-3-hydroxy-4-oxo-imidazolidine-1-carbonyl]-3,5-difluoro-phenyl]prop-2-ynyl]methanesulfonamide] | ≤ 1 µM
13 | NS(=O)(=O)NCC#Cc1cc(F)c(C(=O)N2CC(=O)N(O)C2c2cccc(Br)c2)c(F)c1 (centres unmarked) [Example 111, 2-(3-Bromophenyl)-1-[2,6-difluoro-4-[3-(sulfamoylamino)prop-1-ynyl]benzoyl]-3-hydroxy-4-oxo-imidazolidine] | ≤ 1 µM
14 | CC(C)(N)C#Cc1cc(F)c(C(=O)N2CC(=O)N(O)C2c2cccc(Br)c2)c(F)c1 (centres unmarked) [Example 112, 1-[4-(3-Amino-3-methyl-but-1-ynyl)-2,6-difluoro-benzoyl]-2-(3-bromophenyl)-3-hydroxy-imidazolidin-4-one] | ≤ 5 µM and 1 to 5 µM
15 | O=C1CN(C(=O)c2c(F)cc(-c3ccc(F)s3)cc2F)C(c2cccc(Br)c2)N1O (centres unmarked) [Example 121, 2-(3-Bromophenyl)-1-[2,6-difluoro-4-(5-fluoro-2-thienyl)benzoyl]-3-hydroxy-imidazolidin-4-one] | ≤ 5 µM and 1 to 5 µM
16 | O=C1CN(Cc2ccccc2F)C(c2ccc(F)c(Br)c2)N1O (centres unmarked) [Example 126, 2-(3-Bromo-4-fluoro-phenyl)-1-[(2-fluorophenyl)methyl]-3-hydroxy-imidazolidin-4-one] | ≤ 1 µM
17 | CC(C)(C#Cc1cc(F)c(C(=O)N2CC(=O)N(O)C2c2cccc(Br)c2)c(F)c1)NS(N)(=O)=O (centres unmarked) [Example 128, 2-(3-Bromophenyl)-1-[2,6-difluoro-4-[3-methyl-3-(sulfamoylamino)but-1-ynyl]benzoyl]-3-hydroxy-4-oxo-imidazolidine] | ≤ 1 µM
18 | O=C1CN(C(=O)c2c(F)cc(CCC3CCCCC3)cc2F)C(c2cccc(Br)c2)N1O (centres unmarked) [Example 131, 2-(3-Bromophenyl)-1-[4-(2-cyclohexylethyl)-2,6-difluoro-benzoyl]-3-hydroxy-imidazolidin-4-one] | ≤ 5 µM and 1 to 5 µM
19 | O=C1CN(C(=O)c2c(F)cc(N3CCC3)cc2F)C(c2cccc(Br)c2)N1O (centres unmarked) [Example 134, 1-[4-(Azetidin-1-yl)-2,6-difluoro-benzoyl]-2-(3-bromophenyl)-3-hydroxy-imidazolidin-4-one] | ≤ 5 µM and 1 to 5 µM
20 | CN(CCO)c1cc(F)c(C(=O)N2CC(=O)N(O)C2c2cccc(Br)c2)c(F)c1 (centres unmarked) [Example 135, 2-(3-Bromophenyl)-1-[2,6-difluoro-4-[2-hydroxyethyl(methyl)amino]benzoyl]-3-hydroxy-imidazolidin-4-one] | ≤ 5 µM and 1 to 5 µM

Further lines, results first:

Row | IC50 | Structure (SMILES)
21 | ≤ 5 µM and 1 to 5 µM | O=C1CN(C(=O)c2ccccc2)C(c2ccc(F)c(Cl)c2)N1O (centres unmarked) [Example 50, 1-Benzoyl-2-(3-chloro-4-fluoro-phenyl)-3-hydroxy-imidazolidin-4-one]
22 | ≤ 5 µM and 1 to 5 µM | O=C1CN(C(=O)c2ccccc2)C(c2cccc(Cl)c2)N1O (centres unmarked) [Example 60, 1-Benzoyl-2-(3-chlorophenyl)-3-hydroxy-imidazolidin-4-one]
23 | ≤ 5 µM and 1 to 5 µM | O=C1CN(C(=O)c2cccnc2Cl)C(c2cccc(Br)c2)N1O (centres unmarked) [Example 61, 2-(3-Bromophenyl)-1-(2-chloropyridine-3-carbonyl)-3-hydroxy-imidazolidin-4-one]
24 | ≤ 5 µM and 1 to 5 µM | Cc1cccc(C2N(O)C(=O)CN2C(=O)c2c(F)cccc2F)c1 (centres unmarked) [Example 69, 1-(2,6-Difluorobenzoyl)-3-hydroxy-2-(m-tolyl)imidazolidin-4-one]
25 | ≤ 5 µM and 1 to 5 µM | CS(=O)(=O)Nc1ccc(F)c(C(=O)N2CC(=O)N(O)C2c2cccc(Br)c2)c1F (centres unmarked) [Example 78, N-[3-[2-(3-bromophenyl)-3-hydroxy-4-oxo-imidazolidine-1-carbonyl]-2,4-difluoro-phenyl]methanesulfonamide]
26 | ≤ 5 µM and 1 to 5 µM | O=C1CN(C(=O)c2ncccc2F)C(c2cccc(Br)c2)N1O (centres unmarked) [Example 89, 2-(3-Bromophenyl)-1-(3-fluoropyridine-2-carbonyl)-3-hydroxy-imidazolidin-4-one]
27 | ≤ 5 µM and 1 to 5 µM | CC(C)c1cc(C(=O)N2CC(=O)N(O)C2c2cccc(Br)c2)no1 (centres unmarked) [Example 96, 2-(3-Bromophenyl)-3-hydroxy-1-(5-isopropylisoxazole-3-carbonyl)imidazolidin-4-one]
28 | ≤ 5 µM and 1 to 5 µM | CS(=O)(=O)c1ccc(-c2ccc(C(=O)N3CC(=O)N(O)C3c3cccc(Br)c3)cc2)cc1 (centres unmarked) [Example 97, 2-(3-Bromophenyl)-3-hydroxy-1-[4-(4-methylsulfonylphenyl)benzoyl]imidazolidin-4-one]
29 | ≤ 5 µM and 1 to 5 µM | CS(=O)(=O)N1CCC(C(=O)N2CC(=O)N(O)C2c2cccc(Br)c2)CC1 (centres unmarked) [Example 100, 2-(3-Bromophenyl)-3-hydroxy-1-(1-methylsulfonylpiperidine-4-carbonyl)imidazolidin-4-one]
30 | ≤ 5 µM and 1 to 5 µM | O=C1CN(C(=O)c2ccc3cn[nH]c3c2)C(c2cccc(Br)c2)N1O (centres unmarked) [Example 103, 2-(3-Bromophenyl)-3-hydroxy-1-(1H-indazole-6-carbonyl)imidazolidin-4-one]
31 | ≤ 5 µM and 1 to 5 µM | CC(=O)NC(C)(C)C#Cc1cc(F)c(C(=O)N2CC(=O)N(O)C2c2cccc(Br)c2)c(F)c1 (centres unmarked) [Example 113, N-[3-[4-[2-(3-bromophenyl)-3-hydroxy-4-oxo-imidazolidine-1-carbonyl]-3,5-difluoro-phenyl]-1,1-dimethyl-prop-2-ynyl]acetamide]
32 | ≤ 1 µM | O=C1CN(C(=O)c2c(F)cc(-c3ccccc3)cc2F)C(c2cccc(Br)c2)N1O (centres unmarked) [Example 117, 2-(3-Bromophenyl)-1-(2,6-difluoro-4-phenyl-benzoyl)-3-hydroxy-imidazolidin-4-one]
33 | ≤ 5 µM and 1 to 5 µM | O=C1CN(C(=O)c2c(F)cc(-c3cccnc3)cc2F)C(c2cccc(Br)c2)N1O (centres unmarked) [Example 123, 2-(3-Bromophenyl)-1-[2,6-difluoro-4-(3-pyridyl)benzoyl]-3-hydroxy-imidazolidin-4-one]
34 | ≤ 1 µM | CS(=O)(=O)NCc1cc(F)c(C(=O)N2CC(=O)N(O)C2c2cccc(Br)c2)c(F)c1 (centres unmarked) [Example 130, N-[[4-[2-(3-bromophenyl)-3-hydroxy-4-oxo-imidazolidine-1-carbonyl]-3,5-difluoro-phenyl]methyl]methanesulfonamide]
35 | ≤ 1 µM | NS(=O)(=O)NCCCc1cc(F)c(C(=O)N2CC(=O)N(O)C2c2cccc(Br)c2)c(F)c1 (centres unmarked) [Example 132, 2-(3-Bromophenyl)-1-[2,6-difluoro-4-[3-(sulfamoylamino)propyl]benzoyl]-3-hydroxy-4-oxo-imidazolidine]
